This note sets out measurements from paper doi:10.64898/2025.12.11.693803v1 (biorxiv, 2025).

One assay addresses IP-TOR (TOR) (Arabidopsis thaliana, UniProt Q9FR53). Briefly: biochemical.
Another assay has as its target T1, SnRK1 (in IP-TOR) (Arabidopsis thaliana, UniProt Q38997).
T1 sequence (Q38997 1-512): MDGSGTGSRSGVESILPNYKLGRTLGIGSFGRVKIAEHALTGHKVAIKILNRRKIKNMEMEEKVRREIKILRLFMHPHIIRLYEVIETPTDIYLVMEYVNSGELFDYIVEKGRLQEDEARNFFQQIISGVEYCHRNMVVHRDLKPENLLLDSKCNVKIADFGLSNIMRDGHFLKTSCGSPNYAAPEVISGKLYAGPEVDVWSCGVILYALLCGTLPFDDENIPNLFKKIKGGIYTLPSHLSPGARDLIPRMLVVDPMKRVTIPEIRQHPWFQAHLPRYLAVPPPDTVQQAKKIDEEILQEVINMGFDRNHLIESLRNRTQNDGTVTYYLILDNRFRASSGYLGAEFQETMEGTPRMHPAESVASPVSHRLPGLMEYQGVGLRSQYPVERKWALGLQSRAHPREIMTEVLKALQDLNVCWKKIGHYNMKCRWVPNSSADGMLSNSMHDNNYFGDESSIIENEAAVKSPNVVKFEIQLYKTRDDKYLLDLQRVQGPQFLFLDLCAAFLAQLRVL
Briefly: AMARA-peptide kinase assay with [γ-32P]ATP. The assay is classed as biochemical. Particulars: IP-TOR sample; 200 μM AMARA peptide, 20 μM ATP, 10 mM MgCl2, pH 7.5, 30 °C.

Sequence of IP-TOR (TOR) (Q9FR53 whole entry): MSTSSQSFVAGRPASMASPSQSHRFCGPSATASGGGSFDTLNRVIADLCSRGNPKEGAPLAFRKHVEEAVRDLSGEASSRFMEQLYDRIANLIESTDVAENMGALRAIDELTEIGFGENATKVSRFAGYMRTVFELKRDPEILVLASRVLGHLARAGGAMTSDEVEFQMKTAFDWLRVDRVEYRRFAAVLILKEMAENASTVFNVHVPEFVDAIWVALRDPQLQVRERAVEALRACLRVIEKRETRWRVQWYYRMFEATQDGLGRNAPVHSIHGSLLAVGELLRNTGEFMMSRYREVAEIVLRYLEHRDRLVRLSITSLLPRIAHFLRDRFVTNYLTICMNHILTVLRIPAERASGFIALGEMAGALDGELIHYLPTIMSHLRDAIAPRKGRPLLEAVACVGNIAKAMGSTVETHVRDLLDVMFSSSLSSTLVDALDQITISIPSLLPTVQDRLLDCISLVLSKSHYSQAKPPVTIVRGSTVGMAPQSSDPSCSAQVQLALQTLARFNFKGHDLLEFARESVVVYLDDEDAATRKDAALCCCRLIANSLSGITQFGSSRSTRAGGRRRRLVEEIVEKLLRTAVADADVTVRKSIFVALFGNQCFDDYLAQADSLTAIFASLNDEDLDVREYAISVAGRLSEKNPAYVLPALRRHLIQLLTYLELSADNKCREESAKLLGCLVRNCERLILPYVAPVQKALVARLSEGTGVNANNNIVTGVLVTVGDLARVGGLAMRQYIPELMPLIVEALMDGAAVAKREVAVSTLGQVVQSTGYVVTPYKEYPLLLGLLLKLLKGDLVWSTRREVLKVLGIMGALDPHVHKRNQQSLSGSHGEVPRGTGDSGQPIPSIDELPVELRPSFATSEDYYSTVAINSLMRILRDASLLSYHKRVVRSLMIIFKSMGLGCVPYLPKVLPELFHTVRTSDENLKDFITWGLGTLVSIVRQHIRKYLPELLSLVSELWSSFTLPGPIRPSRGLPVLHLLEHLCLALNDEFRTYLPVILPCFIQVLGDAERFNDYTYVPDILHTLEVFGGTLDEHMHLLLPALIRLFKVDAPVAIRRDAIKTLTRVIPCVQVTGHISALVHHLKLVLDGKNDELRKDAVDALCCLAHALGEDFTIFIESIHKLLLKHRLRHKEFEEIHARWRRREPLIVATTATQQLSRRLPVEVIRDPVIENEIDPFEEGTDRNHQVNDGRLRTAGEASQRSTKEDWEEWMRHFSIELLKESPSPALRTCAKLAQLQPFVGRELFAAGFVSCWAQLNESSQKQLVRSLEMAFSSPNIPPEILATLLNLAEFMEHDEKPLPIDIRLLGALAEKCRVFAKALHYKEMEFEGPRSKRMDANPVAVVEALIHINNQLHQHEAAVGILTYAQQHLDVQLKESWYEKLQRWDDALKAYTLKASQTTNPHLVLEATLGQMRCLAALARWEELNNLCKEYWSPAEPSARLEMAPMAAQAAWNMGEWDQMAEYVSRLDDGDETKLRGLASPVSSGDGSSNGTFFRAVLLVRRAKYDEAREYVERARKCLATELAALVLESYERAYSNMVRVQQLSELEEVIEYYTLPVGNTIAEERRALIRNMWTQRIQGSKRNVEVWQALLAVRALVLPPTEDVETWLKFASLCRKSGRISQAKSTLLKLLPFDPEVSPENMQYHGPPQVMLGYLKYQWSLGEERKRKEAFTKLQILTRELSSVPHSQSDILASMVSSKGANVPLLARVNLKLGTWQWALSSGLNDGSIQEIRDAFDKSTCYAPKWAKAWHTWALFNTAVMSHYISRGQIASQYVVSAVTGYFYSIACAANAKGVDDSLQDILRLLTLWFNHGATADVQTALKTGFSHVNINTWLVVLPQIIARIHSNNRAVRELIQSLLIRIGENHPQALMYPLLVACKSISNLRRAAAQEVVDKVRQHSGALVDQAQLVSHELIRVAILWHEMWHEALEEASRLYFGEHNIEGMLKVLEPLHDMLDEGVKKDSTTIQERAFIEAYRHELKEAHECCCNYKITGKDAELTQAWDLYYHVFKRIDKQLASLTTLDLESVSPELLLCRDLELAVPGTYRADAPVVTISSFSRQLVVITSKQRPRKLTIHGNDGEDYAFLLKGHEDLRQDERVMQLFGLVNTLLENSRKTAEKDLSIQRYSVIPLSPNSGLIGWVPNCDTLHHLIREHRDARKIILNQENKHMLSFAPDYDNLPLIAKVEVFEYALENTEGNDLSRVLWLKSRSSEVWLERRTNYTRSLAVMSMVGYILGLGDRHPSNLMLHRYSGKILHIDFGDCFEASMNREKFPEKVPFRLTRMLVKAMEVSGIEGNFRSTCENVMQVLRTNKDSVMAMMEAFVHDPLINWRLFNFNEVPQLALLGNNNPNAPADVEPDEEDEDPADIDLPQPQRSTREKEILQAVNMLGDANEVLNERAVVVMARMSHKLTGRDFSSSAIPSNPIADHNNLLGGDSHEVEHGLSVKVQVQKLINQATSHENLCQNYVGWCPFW

As usually defined, the Kd is the constant that tells how readily two partners part at equilibrium. Read a high Kd as weaker binding. The molecule `Nc1ncnc2c1ncn2[C@@H]1O[C@H](COP(=O)(O)OP(=O)(O)OP(=O)(O)O)[C@@H](O)[C@H]1O` [ATP] registered a dissociation constant Kd at IP-TOR (TOR) of 5.89 ± 0.83 µM.
For `O=P(O)(O)OC[C@H]1O[C@H](O[C@H]2O[C@H](CO)[C@@H](O)[C@H](O)[C@H]2O)[C@H](O)[C@@H](O)[C@@H]1O` [T6P, Trehalose 6-phosphate], the “% reduction of activity at 1 mM” value on SnRK1 (in IP-TOR) is given as over 50%.
